According to patent US20110065663A1, “ANTI-CANCER COMBINATION THERAPY” (Katholieke Universiteit Leuven, K.U. Leuven R&D, priority 2008, published 2011):
Like-named read-outs stand apart in the source and are kept apart here.

How the values were obtained:
Format in all cases: cell-based, human
MCF-7 cells = assay: Tumor cell proliferation assay, uninfected MCF-7 cells; settings: for IC50: Homo sapiens, uninfected MCF-7; for Ratio (1)/(2) MCF-7: IC50 in the absence of TPi to IC50 in the presence of TPi
Protocol: MCF-7 and MCF-7/HYOR cells were seeded in 48-well plates at 10,000 cells/cm^2. […] of the test compounds (5FU, 5′DFUR, CIdUrd, BrdUrd, IdUrd and TFT) with or without 10 μM TPi were added. The cells were incubated for another 4 days, trypsinized and counted by a Coulter counter (Analis, Suarlée, Belgium). In some experiments, the antibiotic plasmocin was added one or three days before addition of the test compounds.

MCF-7/HYOR cells [1] = assay: Tumor cell proliferation assay, M. hyorhinis-infected MCF-7 cells; settings: for IC50: Homo sapiens, MCF7; for Ratio (1)/(2) MCF-7/HYOR: IC50 in the absence of TPi to IC50 in the presence of TPi; for Anti-proliferative activity in MCF-7/HYOR after three days pre-incubation with doxycycline / Anti-proliferative activity in MCF-7/HYOR after three days pre-incubation with plasmocin: 3 days
Protocol: Mycoplasma hyorhinis (ATCC 17981) was obtained from the American Type Culture Collection (ATCC, Manassas, Va.). The freeze-dried bacteria were reconstituted by adding 1 ml of DMEM. […] The co-culture of MCF-7 cells and M. hyorhinis was maintained under the same conditions as the uninfected MCF-7 cells. […] The cells were incubated for another 4 days, trypsinized and counted by a Coulter counter (Analis, Suarlée, Belgium).

MCF-7/HYOR cells [2] = assay: Nucleotide incorporation assay, MCF-7/HYOR compared with MCF-7 cells; settings: 1 μCi radiolabeled compound; FIG. 4
Protocol: MCF-7 and MCF-7/HYOR cells were seeded at 10,000 cells/cm. After 48 hours, cells were treated with 1 μCi of ^3H-labeled nucleoside with or without 10 μM TPi. 16 h later, the medium was removed and the cells were washed twice with PBS. Next, the cells were trypsinized, transferred to Eppendorf tubes and centrifuged for 10 minutes at 1,400 rpm. The pellet was resuspended in 1 ml absolute ice-cold methanol and kept on ice for 20 minutes. After centrifugation for 20 minutes at 13,000 rpm the pellet was washed twice with methanol, resuspended in methanol and transferred to scintillation vials containing 9 ml of Ready safe liquid scintillation reagent (‘Hisafe 3’, Perkin Elmer, Waltham, Mass.). The radioactivity was measured by a Liquid scintillation analyzer (2300 TR, Packard, Canberra, Australia).

MCF-7/HYOR cell cultures = assay: Nucleoside metabolism experiments, distribution of drug-derived radiolabel in MCF-7/HYOR cell cultures; settings: MCF-7/HYOR
Protocol: Next, the cells were trypsinized, transferred to Eppendorf tubes and centrifuged for 10 minutes at 1,400 rpm. The pellet was resuspended in 1 ml absolute ice-cold methanol and kept on ice for 20 minutes. After centrifugation for 20 minutes at 13,000 rpm the pellet was washed twice with methanol, resuspended in methanol and transferred to scintillation vials containing 9 ml of Ready safe liquid scintillation reagent (‘Hisafe 3’, Perkin Elmer, Waltham, Mass.). The radioactivity was measured by a Liquid scintillation analyzer (2300 TR, Packard, Canberra, Australia). […] Next, the cells were incubated in 0.5 ml absolute ice-cold methanol and kept on ice for 20 minutes. After centrifugation for 20 minutes at 13,000 rpm, the supernatant was subjected to HPLC analysis. […] The amount of compound incorporated into nucleic acids was measured as described above.

[3] = MCF7, 96 h, no TPi, 4 days, read-out: IC50 MCF-7 As such
[4] = MCF7, with 10 μM TPi, read-out: IC50 MCF-7 +TPi (10 μM)
[5] = M. hyorhinis-infected MCF-7, no TPi, no plasmocin, read-out: IC50 MCF-7/HYOR As such
[6] = M. hyorhinis-infected MCF-7, with 10 μM TPi, read-out: IC50 MCF-7/HYOR +TPi (10 μM)
[7] = plasmocin 25 μg/ml, 1 day pretreatment, read-out: IC50 MCF-7/HYOR +plasmocin (25 μg/ml) 1 day prior to addition of test compounds
[8] = plasmocin 25 μg/ml, 3 days pretreatment, read-out: IC50 MCF-7/HYOR +plasmocin (25 μg/ml) 3 days prior to addition of test compounds

Row | IC50 (MCF-7/HYOR cells [1]; [5]) [nM] | IC50 (MCF-7/HYOR cells [1]; [6]) [nM] | SMILES | IC50 (MCF-7 cells; [3]) [nM] | IC50 (MCF-7 cells; [4]) [nM] | Ratio (1)/(2) MCF-7 (MCF-7 cells) | Ratio (1)/(2) MCF-7/HYOR (MCF-7/HYOR cells [1]) | Incorporation into nucleic acids, infected versus uninfected MCF-7 cells (in words) (MCF-7/HYOR cells [2]) | further results
1 | 750 ± 240 | 530 ± 250 | O=c1[nH]cc(F)c(=O)[nH]1 [5FU, 5-fluorouracil] | 810 ± 240 | 620 ± 290 | 1.3 | 1.4 | no difference | IC50 (MCF-7/HYOR cells [1]; [7]): 740 ± 110 nM; IC50 (MCF-7/HYOR cells [1]; [8]): 670 ± 110 nM
2 | 8600 ± 1170 | 840 ± 240 | O=c1[nH]c(=O)n([C@H]2C[C@H](O)[C@@H](CO)O2)cc1Br [BrdUrd, 5-bromo-2′-deoxyuridine] | 590 ± 100 | 360 ± 10 | 1.6 | 10 |  | IC50 (MCF-7/HYOR cells [1]; [7]): 2220 ± 1100 nM; IC50 (MCF-7/HYOR cells [1]; [8]): 740 ± 200 nM; % of drug-derived radiolabel, In medium, Base (MCF-7/HYOR cell cultures; 1 μCi, 16 h): 49.5%; % of drug-derived radiolabel, In medium, Nucleoside (MCF-7/HYOR cell cultures; 1 μCi, 16 h): 42.0%; % of drug-derived radiolabel, In the cytosol of the cells, 5′-diphosphate (MCF-7/HYOR cell cultures; 1 μCi, 16 h): 0.2%; % of drug-derived radiolabel, In the cytosol of the cells, 5′-monophosphate (MCF-7/HYOR cell cultures; 1 μCi, 16 h): 0.4%; % of drug-derived radiolabel, In the cytosol of the cells, 5′-triphosphate (MCF-7/HYOR cell cultures; 1 μCi, 16 h): 0.2%; % of drug-derived radiolabel, In the cytosol of the cells, Nucleoside/nucleobase (MCF-7/HYOR cell cultures; 1 μCi, 16 h): 6.4%; % of drug-derived radiolabel, Incorporatio into DNA/RNA (MCF-7/HYOR cell cultures; 1 μCi, 16 h): 1.4%; Share incorporated into the nucleic acids in the presence of TPi (MCF-7/HYOR cell cultures; in the presence of TPi): almost all; Reduction of incorporation into nucleic acids in infected MCF-7/HYOR cells in comparison with uninfected MCF-7 cells (MCF-7/HYOR cells [2]): 45 fold
3 | 13000 ± 2870 | 1400 ± 700 | O=c1[nH]c(=O)n([C@H]2C[C@H](O)[C@@H](CO)O2)cc1Cl [CldUrd, 5-chloro-2′-deoxyuridine] | 760 ± 190 | 640 ± 150 | 1.2 | 9.3 |  | 
4 | 12000 ± 500 | 310 ± 50 | O=c1[nH]c(=O)n([C@H]2C[C@H](O)[C@@H](CO)O2)cc1I [IdUrd, 5-iodo-2′-deoxyuridine] | 1100 ± 260 | 980 ± 390 | 1.1 | 39 |  | 
5 |  |  | O=c1[nH]cc(C(F)(F)F)c(=O)[nH]1 [TF-thymine] |  |  |  |  | no difference | 
6 | 1200 ± 800 | 68 ± 3 | Nc1ccn([C@@H]2O[C@H](CO)[C@@H](O)[C@@H]2O)c(=O)n1 [araC, cytarabine] | 50 ± 4 | 48 ± 9 | 1.0 | 17 |  | Anti-proliferative activity in MCF-7/HYOR after three days pre-incubation with doxycycline (MCF-7/HYOR cells [1]): restores; Anti-proliferative activity in MCF-7/HYOR after three days pre-incubation with plasmocin (MCF-7/HYOR cells [1]; plasmocin 25 μg/ml): restores
7 | 13000 ± 3000 | 780 ± 230 | Nc1nc(Cl)nc2c1ncn2[C@H]1C[C@H](O)[C@@H](CO)O1 [cladribine] | 460 ± 150 | 390 ± 160 | 1.2 | 17 |  | Reduction of cytostatic activity in infected MCF-7/HYOR compared to control MCF-7 cells (MCF-7/HYOR cells [1]; M. hyorhinis infection): about 30 fold; Anti-proliferative activity in MCF-7/HYOR after three days pre-incubation with doxycycline (MCF-7/HYOR cells [1]): restores; Anti-proliferative activity in MCF-7/HYOR after three days pre-incubation with plasmocin (MCF-7/HYOR cells [1]; plasmocin 25 μg/ml): restores
8 |  |  | O=c1ccn([C@H]2C[C@H](O)[C@@H](CO)O2)c(=O)[nH]1 [dUrd, 2′-deoxyuridine] |  |  |  |  |  | Reduction of incorporation into nucleic acids in infected MCF-7/HYOR cells in comparison with uninfected MCF-7 cells (MCF-7/HYOR cells [2]): 3 fold
9 |  |  | Cc1c[nH]c(=O)[nH]c1=O [thymine] |  |  |  |  | no difference | 
10 |  |  | O=c1cc[nH]c(=O)[nH]1 [uracil] |  |  |  |  | no difference | 
